Measured values taken from patent US20250026721A1, “COMPOUNDS AND METHODS FOR MODULATING RAS-PI3K” (Vividion Therapeutics, Inc., priority 2023, published 2025).

Experiments:
[1] = target: T1, PIK3CA (Homo sapiens, UniProt P42336); test: In vitro ELISA target engagement assay for PIK3CA in Jurkat cellular lysate (competition with PIK3CA Biotin Probe); assay type: binding; details: 1 hour at rt, then 500 nM PIK3CA Biotin Probe, read-out: Elisa Target Engagement Assay (TE50)
T1 construct: endogenous in cells; host or cells: Jurkat cell lysate
T1 sequence (P42336 whole entry): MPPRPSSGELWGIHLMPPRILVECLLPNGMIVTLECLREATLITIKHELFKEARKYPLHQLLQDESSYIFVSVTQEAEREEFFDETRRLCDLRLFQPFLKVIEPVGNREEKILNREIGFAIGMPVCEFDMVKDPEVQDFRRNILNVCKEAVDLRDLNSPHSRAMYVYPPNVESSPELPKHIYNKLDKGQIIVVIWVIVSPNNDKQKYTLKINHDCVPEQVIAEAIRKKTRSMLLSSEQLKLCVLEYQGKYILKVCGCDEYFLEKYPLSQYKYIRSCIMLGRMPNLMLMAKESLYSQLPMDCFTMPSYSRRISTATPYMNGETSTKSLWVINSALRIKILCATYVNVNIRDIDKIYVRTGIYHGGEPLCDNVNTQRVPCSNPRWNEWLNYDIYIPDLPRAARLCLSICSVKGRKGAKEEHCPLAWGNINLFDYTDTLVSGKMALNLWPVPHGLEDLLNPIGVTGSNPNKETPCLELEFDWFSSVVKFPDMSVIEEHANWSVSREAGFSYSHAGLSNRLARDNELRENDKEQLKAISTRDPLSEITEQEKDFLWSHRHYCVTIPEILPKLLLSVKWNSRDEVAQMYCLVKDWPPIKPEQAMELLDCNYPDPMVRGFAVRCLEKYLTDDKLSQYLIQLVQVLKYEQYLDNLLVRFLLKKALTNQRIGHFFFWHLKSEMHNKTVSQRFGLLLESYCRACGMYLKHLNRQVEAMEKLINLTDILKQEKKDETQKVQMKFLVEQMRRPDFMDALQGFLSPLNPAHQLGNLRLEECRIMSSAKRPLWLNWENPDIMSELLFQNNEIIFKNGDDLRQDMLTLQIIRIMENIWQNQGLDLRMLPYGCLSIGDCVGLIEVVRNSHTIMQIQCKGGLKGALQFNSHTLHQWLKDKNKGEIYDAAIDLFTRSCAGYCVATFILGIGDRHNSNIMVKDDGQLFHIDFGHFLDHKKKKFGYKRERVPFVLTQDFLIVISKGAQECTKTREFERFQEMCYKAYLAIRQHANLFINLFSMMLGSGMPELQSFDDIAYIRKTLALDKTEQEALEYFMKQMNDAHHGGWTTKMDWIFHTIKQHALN
T1 sequence (P27986 whole entry partner): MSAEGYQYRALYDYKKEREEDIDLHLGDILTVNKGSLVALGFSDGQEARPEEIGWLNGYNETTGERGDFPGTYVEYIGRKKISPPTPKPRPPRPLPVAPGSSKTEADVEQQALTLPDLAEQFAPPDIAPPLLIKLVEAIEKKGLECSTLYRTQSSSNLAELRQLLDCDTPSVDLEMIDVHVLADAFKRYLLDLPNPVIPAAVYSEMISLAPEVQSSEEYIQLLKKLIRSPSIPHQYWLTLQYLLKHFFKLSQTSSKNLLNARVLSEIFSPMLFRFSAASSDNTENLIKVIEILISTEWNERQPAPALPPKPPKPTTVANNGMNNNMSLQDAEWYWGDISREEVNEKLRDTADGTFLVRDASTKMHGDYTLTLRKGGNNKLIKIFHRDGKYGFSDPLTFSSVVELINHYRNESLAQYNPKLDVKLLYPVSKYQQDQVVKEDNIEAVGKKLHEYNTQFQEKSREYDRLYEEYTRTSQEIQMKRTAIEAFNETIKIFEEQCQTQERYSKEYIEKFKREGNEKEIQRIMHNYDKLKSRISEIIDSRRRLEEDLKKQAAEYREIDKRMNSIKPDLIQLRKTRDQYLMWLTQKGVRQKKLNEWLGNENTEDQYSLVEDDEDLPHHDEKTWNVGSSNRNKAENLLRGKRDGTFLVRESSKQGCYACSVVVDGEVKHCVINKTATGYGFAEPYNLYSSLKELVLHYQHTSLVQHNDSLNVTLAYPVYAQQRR
Method in brief: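 Jurkat lysate from sonicated frozen cells was preincubated 1 h at rt with serially diluted compound up to 200 μM, then labelled 1 h at rt with PIK3CA biotin probe at 500 nM final. Probe-bound PIK3CA was captured on antibody-coated plates and detected with Neutravidin-HRP luminescence; TE50 derived from the dose response.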

[2] = target: T2, PIK3CA_C242 (Homo sapiens, UniProt P42336); test: Proteomic TE50 (IA-DTB / TMT mass spectrometry) in Jurkat cell lysate; assay type: binding; details: 1 hour at rt, 7-point dose response
T2 construct: endogenous in cells; host or cells: Jurkat cell lysate
T2 sequence (P42336 whole entry): as the sequence (P42336 whole entry) above
T2 sequence (P27986 whole entry partner): as the sequence (P27986 whole entry partner) above
Method in brief: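 Jurkat lysate (500 μg) treated with compound (7-point, 1:5 dilutions) for 1 h at rt, then labelled with 200 μM IA-DTB for 1 h. After digestion and streptavidin enrichment, the C242 peptide was quantified by targeted MS3 TMT. TE50 was derived from reporter-ion S/N dose-response curves.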

[3] = test system: pAKT(S473) in FaDu cell line; test: In vitro Phospho-AKT(S473) HTRF analysis in FaDu cells; assay type: cell-based; details: Homo sapiens, 0.5 h; for IC50: FaDu cells, 30 minutes at 37° C.; for Emax: FaDu, read-out: FaDu pAKT Imax % control
Method in brief: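 FaDu or H358 cells were plated overnight in medium with 1% FBS, then exposed to a compound dose response for 30 minutes at 37° C. Phospho-AKT(S473) levels were measured by HTRF.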

[4] = test system: pAKT(S473) in H358 cell line; test: In vitro Phospho-AKT(S473) HTRF analysis in H358 cells; assay type: cell-based; details: Homo sapiens, NCI-H358, 0.5 h; for IC50: H358 cells, 30 minutes at 37° C.; for Emax: read-out: H358 pAKT Imax % control
Protocol: Example 5. In Vitro Phosgho-AKT(S473) Analysis
Functional activity of the compounds to inhibit pAKT were assessed in FaDu or H358 cell lines as indicated below.
• Complete Media • FBS, Corning catalog #35-010-CV • Anti-Anti, Gibco catalog #15240-062 • 96 well plate, Corning catalog #3610 • TrypLE, Gibco catalog #12604013 • Phospho-AKT(S473) HTRF kit, Cisbio catalog #64AKSPET
Cells were detached from the tissue culture flask with TrypLE. The cells were pelleted at 500×g for 5 min, TrypLe was removed and then resuspended in the necessary volume of media+1% FBS to give the appropriate cell density (17,500 cells/mL for FaDu; 20,000 cells/mL for H358). 100 μL of cell suspension/well was dispensed into the 96-well plate while keeping the outer wells of the plate free of cells and filled with PBS to prevent evaporation of interior wells. The plate was incubated at 37° C. and allowed to adhere overnight. The cells were treated with a dose response of compound and incubated at 37° C. for 30 minutes. The cells were then processed and pAKT(S473) levels were assessed following the specifications of the Cisbio HTRF kit.

| SMILES | IC50 [1] | IC50 [2] | IC50 [3] | Emax [3] | IC50 [4] | Emax [4] |
| --- | --- | --- | --- | --- | --- | --- |
| C[C@H](/C=C\S(C)(=O)=O)NC(=O)C1(F)CCN(S(=O)(=O)c2cnc(C(F)(F)F)cc2-c2ccccc2Cl)CC1 [Compound 207, (R,Z)-1-((4-(2-chlorophenyl)-6-(trifluoromethyl)pyridin-3-yl)sulfonyl)-4-fluoro-N-(4-(methylsulfonyl)but-3-en-2-yl)piperidine-4-carboxamide] | 184 nM | 150 nM | 803 nM | 75.2% |  |  |
| C[C@@H](/C=C\S(C)(=O)=O)NC(=O)[C@@]1(F)CCCN(C(=O)[C@H]2CN(CC(F)(F)F)C[C@H]2c2c(F)cccc2Cl)CC1 [Compound 297, (R)-1-((3R,4R)-4-(2-chloro-6-fluorophenyl)-1-(2,2,2-trifluoroethyl)pyrrolidine-3-carbonyl)-4-fluoro-N-((S,Z)-4-(methylsulfonyl)but-3-en-2-yl)azepane-4-carboxamide] | 910 nM |  |  |  | 1500 nM | 87.6% |
| C[C@H](/C=C\S(C)(=O)=O)NC(=O)[C@@]1(F)CCCN(C(=O)[C@H]2CN(CC(F)(F)F)C[C@H]2c2ccccc2F)CC1 (single isomer, unassigned) [Compound 223, (R)-4-fluoro-1-((3*R,4*R)-4-(2-fluorophenyl)-1-(2,2,2-trifluoroethyl)pyrrolidine-3-carbonyl)-N-((R,Z)-4-(methylsulfonyl)but-3-en-2-yl) azepane-4-carboxamide] | 510 nM |  |  |  | 346 nM | 87.5% |
| C[C@H](/C=C\S(C)(=O)=O)NC(=O)C1(F)CCN(S(=O)(=O)c2ccc(C(F)(F)F)cc2-c2ccccc2Cl)CC1 [Compound 33, (R,Z)-1-((2′-chloro-5-(trifluoromethyl)-[1,1′-biphenyl]-2-yl)sulfonyl)-4-fluoro-N-(4-(methylsulfonyl)but-3-en-2-yl)piperidine-4-carboxamide] | 158 nM | 133 nM | 409 nM | 86.2% |  |  |
| C[C@H](/C=C\S(C)(=O)=O)NC(=O)C1(F)CCN(C(=O)[C@H]2CN(CC(F)(F)F)C[C@H]2c2ccccc2Cl)C1 (stereo partly drawn) [Compound 314, 1-((3R,4R)-4-(2-chlorophenyl)-1-(2,2,2-trifluoroethyl)pyrrolidine-3-carbonyl)-3-fluoro-N-((R,Z)-4-(methylsulfonyl)but-3-en-2-yl)pyrrolidine-3-carboxamide] | 1100 nM |  |  |  | 622 nM | 100% |
| C[C@H](/C=C\S(C)(=O)=O)NC(=O)[C@@]1(F)CCCN(C(=O)[C@H]2CN(CC3(F)CC3)C[C@H]2c2c(F)cccc2Cl)CC1 (single isomer, unassigned) [Compound 184, (R)-1-((3*R,4*R)-4-(2-chloro-6-fluorophenyl)-1-((1-fluorocyclopropyl)methyl)pyrrolidine-3-carbonyl)-4-fluoro-N-((R,Z)-4-(methylsulfonyl)but-3-en-2-yl)azepane-4-carboxamide] | 85 nM |  |  |  | 64.6 nM | 102% |
| C[C@H]1C[C@](F)(C(=O)N[C@@H]2C=CS(=O)(=O)C2)CCN1C(=O)[C@H]1CN(CC(F)(F)F)C[C@H]1c1cccc(F)c1Cl (single isomer, unassigned) [Compound 175, (2*S,4*S)-1-((3*R,4*R)-4-(2-chloro-3-fluorophenyl)-1-(2,2,2-trifluoroethyl)pyrrolidine-3-carbonyl)-N-((R)-1,1-dioxido-2,3-dihydrothiophen-3-yl)-4-fluoro-2-methylpiperidine-4-carboxamide] | 620 nM |  |  |  | 151 nM | 75.6% |
| C[C@H](/C=C\S(C)(=O)=O)NC(=O)[C@@]1(F)CCCN(C(=O)[C@@H]2CN(CC(F)(F)F)C[C@@H]2c2c(F)cc(F)cc2Cl)CC1 (single isomer, unassigned) [Compound 227, (R)-1-((3*S,4*S)-4-(2-chloro-4,6-difluorophenyl)-1-(2,2,2-trifluoroethyl)pyrrolidine-3-carbonyl)-4-fluoro-N-((R,Z)-4-(methylsulfonyl)but-3-en-2-yl)azepane-4-carboxamide] | 340 nM |  |  |  | 250 nM | 102% |
| C[C@H](/C=C\S(C)(=O)=O)NC(=O)C1(F)CCN(S(=O)(=O)c2ccc(C#N)cc2-c2ccccc2Cl)CC1 [Compound 35, (R,Z)-1-((2′-chloro-5-cyano-[1,1′-biphenyl]-2-yl)sulfonyl)-4-fluoro-N-(4-(methylsulfonyl)but-3-en-2-yl)piperidine-4-carboxamide] | 165 nM | 140 nM | 330 nM | 103% |  |  |
| C[C@H](/C=C/C(=O)N1CC(F)(F)C1)NC(=O)C1(F)CCN(S(=O)(=O)c2ccc(C(F)(F)F)cc2-c2ccccc2Cl)CC1 [Compound 134, 1-[2-(2-chlorophenyl)-4-(trifluoromethyl)phenyl]sulfonyl-4-fluoro-N—[(E,1R)-4-(3,3-difluoroazetidin-1-yl)-1-methyl-4-oxo-but-2-enyl]piperidine-4-carboxamide] | 177 nM | 150 nM | 348 nM | 96.3% |  |  |
| COc1ccc(S(=O)(=O)N2CC[C@@](F)(C(=O)N[C@H](C)/C=C\S(C)(=O)=O)C[C@H]2C)c(-c2ccccc2Cl)c1 [Compound 141, (2R,4S)-1-[2-(2-chlorophenyl)-4-methoxy-phenyl]sulfonyl-4-fluoro-2-methyl-N—[(Z,1R)-1-methyl-3-methylsulfonyl-allyl]piperidine-4-carboxamide] | 75 nM | 50 nM | 82.4 nM | 102% |  |  |
| COc1cc(-c2ccccc2Cl)c(S(=O)(=O)N2CCC(F)(C(=O)N[C@@H](C)/C=C\S(C)(=O)=O)CC2)cn1 [Compound 187, (S,Z)-1-((4-(2-chlorophenyl)-6-methoxypyridin-3-yl)sulfonyl)-4-fluoro-N-(4-(methylsulfonyl)but-3-en-2-yl)piperidine-4-carboxamide] |  | 68.1 nM | 152 nM | 70.1% |  |  |
| C[C@H](/C=C/S(C)(=O)=O)NC(=O)[C@@]1(F)CCCN(C(=O)[C@H]2CN(CC(F)(F)F)C[C@H]2c2ccccc2Cl)CC1 [Compound 177, (R)-1-((3R,4R)-4-(2-chlorophenyl)-1-(2,2,2-trifluoroethyl)pyrrolidine-3-carbonyl)-4-fluoro-N-((R,E)-4-(methylsulfonyl)but-3-en-2-yl)azepane-4-carboxamide] | 790 nM |  | 672 nM | 69.5% |  |  |
| COc1ccc(S(=O)(=O)N2CC[C@@](F)(C(=O)N[C@H](C)/C=C/C(=O)N3CC(F)(F)C3)C[C@H]2C)c(-c2ccccc2Cl)c1 [Compound 151, (2R,4S)-1-((2′-chloro-5-methoxy-[1,1′-biphenyl]-2-yl)sulfonyl)-N-((R,E)-5-(3,3-difluoroazetidin-1-yl)-5-oxopent-3-en-2-yl)-4-fluoro-2-methylpiperidine-4-carboxamide] | 226 nM | 200 nM | 284 nM | 100% |  |  |
| COCc1ccc(S(=O)(=O)N2CC[C@@](F)(C(=O)N[C@H](C)/C=C\S(C)(=O)=O)C[C@H]2C)c(-c2ccccc2Cl)c1 [Compound 149, (2R,4S)-1-((2′-chloro-5-(methoxymethyl)-[1,1′-biphenyl]-2-yl)sulfonyl)-4-fluoro-2-methyl-N-((R,Z)-4-(methylsulfonyl)but-3-en-2-yl)piperidine-4-carboxamide] | 161 nM |  | 248 nM | 109% |  |  |
| C[C@H](/C=C\S(C)(=O)=O)NC(=O)[C@@]1(F)CCCN(C(=O)[C@H]2CN(CC(F)(F)F)C[C@H]2c2cc(F)ccc2Cl)CC1 (single isomer, unassigned) [Compound 166, (R)-1-((3*R,4*R)-4-(2-chloro-5-fluorophenyl)-1-(2,2,2-trifluoroethyl)pyrrolidine-3-carbonyl)-4-fluoro-N-((R,Z)-4-(methylsulfonyl)but-3-en-2-yl)azepane-4-carboxamide] | 300 nM |  | 187 nM | 78.9% |  |  |
| C[C@H](/C=C/C(=O)N1CC(F)(F)C1)NC(=O)[C@@]1(F)CCCN(C(=O)c2ccc(C(F)(F)F)cc2-c2ccccc2Cl)CC1 [Compound 244, (R)-1-(2′-chloro-5-(trifluoromethyl)-[1,1′-biphenyl]-2-carbonyl)-N-((R,E)-5-(3,3-difluoroazetidin-1-yl)-5-oxopent-3-en-2-yl)-4-fluoroazepane-4-carboxamide] | 780 nM |  | 1200 nM | 76.3% |  |  |
